Data from patent publication US20220009920A1 (GB005, Inc., priority 2020, published 2022).
Like-named read-outs stand apart in the source and are kept apart here.

What was measured:
[1] = Plasma and total brain concentrations at 1 h post single oral administration to female C57BL/6 mice; type: in vivo; conditions: mouse, 10 mg/kg oral gavage; for Kp at 1 h: brain/plasma, read-out: brain to plasma ratio
Experimental: The appropriate amount of test article was dissolved 10% dimethylacetamide (DMA)/90% (20% hydroxypropyl-β-cyclodextrin (HP-B-CD) w/v in water to obtain a final concentration of 1 mg/mL for oral dosing. Sonication, vortex, and homogenization was used as needed. Three female C57BL/6 mice aged 7-9 weeks (20-30 grams) were dosed by oral gavage 10 mg/kg solution of the test article.
Concentrations of test compounds in the plasma and brain samples (use plasma and brain homogenate standard curve for all samples appropriately) were analyzed using LC-MS/MS. Compounds having a brain-to-plasma ratio of greater than 0.2 were considered brain penetrant.

BTK in RAMOS B cells = assay: Assay to determine BTK activity in RAMOS B cells (anti-IgM, FLIPR Calcium 6); type: cell-based; conditions: anti-IgM EC80, calcium readout
[2] = plasma, read-out: Mean [plasma]

C=CC(=O)N1CCCC(c2c(F)cc(C(N)=O)c3[nH]c4c(c23)CCCCC4)C1 (single isomer, unassigned) [Compound 5-6]
concentration at 1 h ([1]; brain, read-out: Mean [brain]): 16 ng/g | Kp at 1 h [1]: 0.4 | concentration at 1 h [1, 2]: 42 ng/mL | IC50 (BTK in RAMOS B cells): < 10 nM

C=CC(=O)N1CCC[C@@H](c2c(F)cc(C(N)=O)c3[nH]c4c(c23)CC2(CC4)CC2)C1 [Compound 6-2, (S)-5-(1-acryloylpiperidin-3-yl)-6-fluoro-1,2,4,9-tetrahydrospiro[carbazole-3,1′-cyclopropane]-8-carboxamide]
concentration at 1 h ([1]; brain, read-out: Mean [brain]): 18 ng/g | Kp at 1 h [1]: 0.24 | concentration at 1 h [1, 2]: 78 ng/mL | IC50 (BTK in RAMOS B cells; Homo sapiens, Ramos): < 10 nM

C=CC(=O)N1CCC[C@@H](c2c(F)cc(C(N)=O)c3[nH]c4c(c23)CCC4)C1 [Compound 10-2, (S)-8-(1-acryloylpiperidin-3-yl)-7-fluoro-1,2,3,4-tetrahydrocyclo-penta[b]indole-5-carboxamide]
concentration at 1 h ([1]; brain, read-out: Mean [brain]): 72 ng/g | Kp at 1 h [1]: 0.37 | concentration at 1 h [1, 2]: 191 ng/mL | IC50 (BTK in RAMOS B cells; Homo sapiens, Ramos): < 10 nM
